Results as given in patent US5026858A, “Piperidine derivative” (Walton S.A., priority 1976, dated 1991).
pKi: −log10 of the molar value. Counter-ions that a name gives are not always drawn. Like-named read-outs stand apart in the source and are kept apart here.

Legend:
[1] = test system: apomorphineinduced gnawing behaviour; assay: inhibition of apomorphine-induced gnawing behaviour in the rat (oral); assay type: in vivo
Description: | ^(b) Approximate oral ED50 value for inhibition of | apomorphineinduced gnawing behaviour in the rat (mg kg^-1) and | ^(b) Approximate oral ED50 value for inhibition of | apomorphineinduced gnawing behaviour in the rat (mg kg^-1) and […]

[2] = test system: apomorphineinduced vomiting; assay: inhibition of apomorphine-induced vomiting in the dog (oral); assay type: in vivo; settings: Canis lupus familiaris
Description: | ^(b) Approximate oral ED50 value for inhibition of | apomorphineinduced gnawing behaviour in the rat (mg kg^-1) and | vomiting in the dog (μg kg^-1) | ^(b) Approximate oral ED50 value for inhibition of | apomorphineinduced gnawing behaviour in the rat (mg kg^-1) and | vomiting in the dog (μg kg^-1)

[3] = target: T1, dopamine sensitive adenylate cyclase of rat straitum (Rattus norvegicus, UniProt P18901); assay: inhibition of dopamine sensitive adenylate cyclase of rat striatum; assay type: biochemical
T1 construct: adenylate cyclase of rat straitum; from tissue; host or cells: rat striatum
T1 sequence (P18901 whole entry): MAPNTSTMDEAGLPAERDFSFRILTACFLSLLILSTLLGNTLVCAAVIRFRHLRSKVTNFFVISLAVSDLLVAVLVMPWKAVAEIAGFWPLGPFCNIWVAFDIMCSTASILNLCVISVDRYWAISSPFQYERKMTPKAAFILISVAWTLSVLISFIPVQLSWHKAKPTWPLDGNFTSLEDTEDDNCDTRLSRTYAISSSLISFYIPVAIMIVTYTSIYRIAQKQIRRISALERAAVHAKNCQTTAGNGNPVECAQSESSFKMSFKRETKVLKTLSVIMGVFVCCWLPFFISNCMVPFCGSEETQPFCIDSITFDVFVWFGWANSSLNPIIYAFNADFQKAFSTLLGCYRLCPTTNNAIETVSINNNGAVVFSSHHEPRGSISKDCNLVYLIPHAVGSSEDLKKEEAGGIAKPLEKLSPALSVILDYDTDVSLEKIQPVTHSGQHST

[4] = target: T2, [3H]haloperidol binding, rat striatal membranes (Rattus norvegicus, UniProt P61169); assay: displacement of [3H]haloperidol from rat striatal membranes; settings: Table 1, read-out: Displacement [3H]Haloperidol striatum: approximate KI
T2 construct: striatal and limbic forebrain membranes; from tissue; host or cells: rat striatal membranes
T2 sequence (P61169 whole entry): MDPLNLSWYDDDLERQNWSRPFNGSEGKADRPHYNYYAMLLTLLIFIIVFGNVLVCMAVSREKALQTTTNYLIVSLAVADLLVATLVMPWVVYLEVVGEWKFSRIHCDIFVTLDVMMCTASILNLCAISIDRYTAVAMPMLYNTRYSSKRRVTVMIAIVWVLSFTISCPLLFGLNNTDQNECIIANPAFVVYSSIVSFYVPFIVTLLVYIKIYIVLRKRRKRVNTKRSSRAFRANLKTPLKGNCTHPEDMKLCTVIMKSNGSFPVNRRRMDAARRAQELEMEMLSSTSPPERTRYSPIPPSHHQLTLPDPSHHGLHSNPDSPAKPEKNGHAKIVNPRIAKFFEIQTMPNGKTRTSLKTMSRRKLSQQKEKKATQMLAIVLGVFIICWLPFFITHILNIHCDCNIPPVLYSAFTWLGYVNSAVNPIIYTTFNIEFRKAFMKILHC
Description: (§1) ^(f) Approximate KI (nM) for displacement of [3Hhaloperidol from rat
(§2) striatal and limbic forebrain membranes.

[5] = target: T3, [3H]haloperidol binding, rat limbic forebrain membranes (Rattus norvegicus, UniProt P61169); assay: displacement of [3H]haloperidol from rat limbic forebrain membranes; settings: Table 1, read-out: Displacement [3H]Haloperidol limbic: approximate KI
T3 construct: striatal and limbic forebrain membranes; from tissue; host or cells: rat limbic forebrain membranes
T3 sequence (P61169 whole entry): as above
Description: as §1, §2

[6] = approximate ED50, Table 2, read-out: Antiapomorphine rat: approximate oral ED50 for inhibition of apomorphine-induced gnawing
[7] = approximate ED50, Table 2, read-out: Antiapomorphine dog: approximate oral ED50 for inhibition of apomorphine-induced vomiting
[8] = rat striatum, Table 1, read-out: Dopamine sensitive aden-cyclase: approximate KI
[9] = approximate ED50, Table 1, read-out: Anti-apomorphine dog: approximate oral ED50 for inhibition of apomorphine-induced vomiting
[10] = approximate ED50, Table 1, read-out: Anti-apomorphine rat: approximate oral ED50 for inhibition of apomorphine-induced gnawing

| Compound | ED50 [1, 6] | ED50 [2, 7] | ED50 [2, 9] | ED50 [1, 10] | other results |
| --- | --- | --- | --- | --- | --- |
| COc1cc(N)c(Cl)cc1C(=O)NC1CCN(Cc2ccccc2)CC1 [Clebopride hydrochloride, reference compound] | 2.5 mg/kg | 0.04 mg/kg | – | – | pKi [3, 8]: 8.30; pKi [4]: 7.60; pKi [5]: 8.30 |
| CCOc1cc(N)c([N+](=O)[O-])cc1C(=O)NC1CCN(Cc2ccccc2)CC1 [EtO, NH2, NO2, H, phenyl, H, H, H, --, N-(1-benzylpiperid-4-yl)-2-ethoxy-4-amino-5-nitrobenzamide] | – | – | < 0.05 mg/kg | – | – |
| COc1cc(N)c([N+](=O)[O-])cc1C(=O)NC1CCN(Cc2ccccc2)CC1 [MeO, NH2, NO2, H, phenyl, H, H, H, --, N-(1-Benzylpiperid-4-yl)-2-methoxy-4-amino-5-nitrobenzamide] | – | – | < 0.05 mg/kg | 140 mg/kg | pKi [3, 8]: 8.30; pKi [4]: 7.70; pKi [5]: 9.00 |
| COc1cc(N)c([N+](=O)[O-])cc1C(=O)NC1CCN(CCc2ccccc2)CC1 [MeO, NH2, NO2, H, phenyl, H, H, H, CH2, N-(1-phenethylpiperid-4-yl)-2-methoxy-4-amino-5-nitrobenzamide] | – | – | > 5 mg/kg | 800 mg/kg | pKi [3, 8]: 9.00; pKi [4]: 8.00; pKi [5]: 9.00 |
| CCN(CC)CCNC(=O)c1cc(Cl)c(N)cc1OC [Metoclopramide, reference compound] | – | – | 0.45 mg/kg | 13.6 mg/kg | pKi [3]: 7.22 |
| COc1cc(N)c([N+](=O)[O-])cc1C(=O)NC1CCN(Cc2ccc(Cl)cc2)CC1 [N-(1-p-chlorobenzylpiperid-4-yl)-2-methoxy-4-amino-5-nitrobenzamide] | – | – | < 0.05 mg/kg | – | – |
| COc1cc(N)c([N+](=O)[O-])cc1C(=O)NC1CCN(Cc2ccc(C)cc2)CC1 [N-(1-p-methylbenzylpiperid-4-yl)-2-methoxy-4-amino-5-nitrobenzamide] | – | – | < 0.05 mg/kg | – | – |
| CCN1CCCC1CNC(=O)c1cc(S(N)(=O)=O)ccc1OC (stereo not drawn) [Sulpiride, reference compound] | – | – | 0.141 mg/kg | > 800 mg/kg | – |
| COc1cc(N)c([N+](=O)[O-])cc1C(=O)NC1CCN(CC2=CCC=CC2)CC1 [compound 2, N-(1-Cyclohexa-1',4'-dienylmethylpiperid-4-yl)-2-methoxy-4-amino-5-nitrobenzamide] | 60 mg/kg | < 0.05 mg/kg | – | – | – |
| COc1cc(N)c([N+](=O)[O-])cc1C(=O)NC1CCN(CCC2=CCC=CC2)CC1 [compound 3, N-[1-(2-cyclohexa-1',4'-dienylethyl)piperid-4-yl]-2-methoxy-4-amino-5-nitrobenzamide] | > 300 mg/kg | > 0.5 mg/kg | – | – | – |
| CCOc1cc(N)c([N+](=O)[O-])cc1C(=O)NC1CCN(CC2=CCC=CC2)CC1 [compound 4, N-(1-cyclohexa-1',4'-dienylmethylpiperid-4-yl)-2-ethoxy-4-amino-5-nitrobenzamide] | 50 mg/kg | < 0.05 mg/kg | – | – | – |
| CCOc1cc(N)c([N+](=O)[O-])cc1C(=O)NC1CCN(CC2=CCC(C)=CC2)CC1 [compound 5, N-[1-(4-methylcyclohexa-1,4-dienyl)methylpiperid-4-yl]-2-ethoxy-4-amino-5-nitrobenzamide] | 40 mg/kg | < 0.05 mg/kg | – | – | – |
| COc1cc(N)c([N+](=O)[O-])cc1C(=O)NC1CCN(CC2=CCC(C)=CC2)CC1 [compound 6, N-[1-(4-methylcyclohexa-1,4-dienyl)methylpiperid-4-yl]-2-methoxy-4-amino-5-nitrobenzamide] | 35 mg/kg | < 0.05 mg/kg | – | – | – |
